Data: patent US20210371353A1, “FERTILIZER COMPOSITIONS AND PLANTS CONTAINING PROTOCATECHUIC ACID, AND USES THEREOF” (priority 2020, published 2021)
“Also recorded” adds a separate entry of the source.

Assays:
[1] = test system: lettuce; experiment: Size of roots and leaves of harvested lettuce; type: in vivo; conditions: for Leaves (each) Width: control 3-5 cm; for Root (as a whole) Width: control 6 cm; for Root (as a whole) Length: control 8 cm; for Leaves (each) Length: control 20-21 cm; for Size of roots and leaves / plant growth compared with control: approximately eight weeks (two months) after sowing
Source text: A commercial plant box as shown in FIG. 1A was used for the experiment. The bottom one half was filled with sandbox sand, and the top layer was filled with six inches of non-fertilized soil. The level of the soil was four inches below the top of the container. The plant box was partitioned into three sections with physical barriers in between, from the top of the soil to the bottom of the plant box, as illustrated in FIG. 1B.
A single straight line of 0.25-inch-deep trough was formed in each section. Then, lettuce seeds were placed in the trough according to the methods laid out in Table 1 below. Each section was watered daily with tap water.
Approximately eight weeks after sowing, a portion of each group was harvested, and size of the roots and leaves of the harvested lettuce was measured, as summarized in Table 3 below.

[2] = test system: lettuce; experiment: Browning of harvested and cut lettuce; type: in vivo
Source text: Browning of the lettuce harvested at approximately eight weeks after sowing were examined for experimental groups 2 and 3. The cut end of the stalk and the cut area on the leaves were observed. First browning appeared on the cut end six days after harvesting and cutting.

[3] = test system: lettuce; experiment: Remaining lettuce observed until final harvest (wilting, size, pest holes); type: in vivo; conditions: approximately 14 weeks after sowing
[4] = test system: red azaleas; experiment: Flowering of red azaleas; type: in vivo, azalea (red bird variety); conditions: small amount of PCA crystals around the stem
Source text: In one of the two azalea plants (red bird variety), small amount of PCA crystals were placed around the stem, and both were watered daily. The plant treated with PCA bloomed in three weeks, and the other plant bloomed in seven weeks.

[5] = test system: pink azaleas; experiment: Flowering and sprouting of pink azaleas; type: in vivo, pink azalea
Source text: In the experimental plant, small amount of PCA crystals were placed around the stem, and both plants were watered daily.

[6] = test system: rice; conditions: had been reported; cited from earlier work
[7] = approximately eight weeks after sowing

Compound | Shape of root and leaves compared with other groups [1, 7] | Leaves (each) Width [1, 7] | Root (as a whole) Width [1, 7] | Root (as a whole) Length [1, 7] | Leaves (each) Length [1, 7] | Size of roots and leaves / plant growth compared with control [1] | Time to first browning on the cut end after harvesting and cutting ([2]; lettuce harvested approximately eight weeks after sowing) | Browning in the cut areas of the leaves ([2]; six days after cutting) | Browning on cut end of the stalk compared with control ([2]; six days after harvesting and cutting) | Size of leaves and roots at final harvest, group 3 versus group 2 [3] | Speed of flowering compared with untreated plant [4] | Time to bloom ([4]; watered daily, untreated plant seven weeks) | Blooming compared with control plant ([5]; approximately five weeks after placing PCA crystals around the stem) | Flowering, buds and shoots compared with control plant ([5]; approximately seven weeks after placing PCA crystals, control wilted) | Buds compared with control plant ([5]; approximately six weeks after placing PCA crystals) | Overall flowering, sprouting and budding compared with control ([5]; summary) | Effect on growth of some plant species, e.g., rice [6]
O=C(O)c1ccc(O)c(O)c1 [PCA coating, protocatechuic acid] | the root was relatively narrower, and the leaves were relatively wider and shorter; also recorded: a different shaped single root | 4-7 cm | 3-5 cm | 8-11 cm | 17-18 cm |  |  |  |  |  |  |  |  |  |  |  | 
O=C(O)c1ccc(O)c(O)c1 [PCA crystals, protocatechuic acid] |  | 4-6 cm | 9 cm | 10 cm | 24 cm | bigger roots and leaves than the control | six | no browning was observed; also recorded: no browning was seen where leaves were cut | not as thick as in the control group; also recorded: did not show thick brown covering on the stump | larger and wider leaves and larger roots than experimental group 2 | more than twice as fast | three | started to bloom before the control plant did, and had more flowers blooming than the control plant | continued to flower and had more buds and taller shoot of stems than the control | had many more buds on the top yet to flower | flowered sooner, added sprouts sooner, and had budding that lasted longer than the control | 
O=C(O)c1ccc(O)c(O)c1 [PCA, protocatechuic acid] |  |  |  |  |  | enhanced plant growth; larger root system and larger leaves than the control |  |  |  |  |  |  |  |  |  |  | no effect on growth
